Test [1] relates to oxidative and ER stress genes. The test is described as follows: Real-time quantitative RT-PCR of oxidative and ER stress genes in CML CD34+ cells. It is filed as cell-based, human. The following applies: fenretinide-treated CML CD34+ cells. From the text: Real-time quantitative RT-PCR was preformed on ABI7900 thermocycler detection system using SYBR Green I (Applied Biosystems, Foster City, Calif.).
Fenretinide preferentially targets more primitive leukemia stem and progenitor cells (Example 3 and Example 4), and mechanisms are involved in ROS-dependent apoptosis in a panel of leukemia cell lines. Additionally, the process of fenretinide-induced apoptosis is modulated by a large number of oxidative and ER stress genes (Example 5 and Example 6). It is of significant value to further evaluate whether fenretinide exerts similar mechanism on primitive leukemia stem and progenitor cells. Thus, we isolated CD34^+ cells from CML patients, which were subjected to real-time quantitative RT-PCR for oxidative and ER stress genes identified based on microarray analysis of fenretinide-treated K562 cells.

In the next test the test system is HL60 cells. The test is described as follows: Intracellular ROS accumulation, DCFH-DA staining, HL60 cells. Format: cell-based. The settings on record: 3 h; for increase of ROS level: proliferating HL60 cells; for fold change of ROS: quiescent HL60 cells. On the procedure:
HL60 cells were cultured in RPMI 1640 supplemented (i) with or (ii) without 10% fetal bovine serum to obtain proliferating and quiescent leukemia cells respectively. Serum-deprived quiescent leukemic cells and proliferating leukemic cells were then cultured in media containing 0.5% FBS, and treated with 1 μM and 2.5 μM fenretinide, and also with chemotherapeutics as controls, 20 μM idarubicin (IDA) and 5 μM cytarabine (Ara-C).
The intracellular generation of reactive oxygen species (ROS) was measured using of the oxidation-sensitive fluorescent dye 2,7-dichlorofluorescin diacetate (DCFH-DA) (Molecular Probes). After 3 h exposure of fenretinide, 2×10^5 cells were harvested and washed once with PBS, then loaded with 1 ml PBS containing 10 μM of DCFH-DA. The cells were then incubated at 37° C. for 30 min and the fluorescence intensity was measured at 530 nm.
To examine the effects of fenretinide on proliferating and quiescent leukemia cells, HL60 cells were chosen as serum deprived quiescent leukemic cell model obtained when incubated in RPMI 1640 without serum for 48 h, with G0/G1 phase cells (being in quiescent state) accounting up to 59.9%. Serum-deprived quiescent leukemic cells and proliferating leukemic cells were then cultured in media containing 0.5% FBS, and treated with 1 μM and 2.5 μM fenretinide, and also with chemotherapeutics as controls, 20 μM idarubicin (IDA) and 5 μM cytarabine (Ara-C). […] Fenretinide induces intracellular production of ROS, lowers mitochondrial transmembrane potential (MTP), and eventually leads to apoptosis in a variety of malignancies. We measured MTP induced by fenretinide in proliferating and quiescent HL60 cells, as examined through rhodamine 123 and propidium iodide staining and followed by flow cytometry analysis. […] We further measured intracellular ROS abundance induced by fenretinide. […] After incubation with 1 μM and 2.5 μM fenretinide for 3 h, the ROS level of proliferating cells increased by 1.77 and 2.6 fold, respectively.

For the molecule `CC1=C(/C=C/C(C)=C/C=C/C(C)=C/C(=O)Nc2ccc(O)cc2)C(C)(C)CCC1` [fenretinide, N-(4-hydroxyphenyl)retinamide], the “expression of genes involved in oxidative and ER stress” value in test [1] is reported as “highly up-regulated”. In the test with HL60 cells (1 μM fenretinide), the “increase of ROS level” value was 1.77 fold and the “fold change of ROS” value is recorded as 3.83 fold. Moreover, in the test with HL60 cells (2.5 μM fenretinide), the “increase of ROS level” value is 2.6 fold and the “fold change of ROS” value was 4.3 fold.
